The nature of the series: solvent given as SMILES.
Setting [1] is: in CCCCCCCCC=CCCCCCCCC(=O)OCC(COC(=O)CCCCCCCC=CCCCCCCCC)OC(=O)CCCCCCCC=CCCCCCCCC

Structures are written as SMILES.

The values below come from the CombiSolv-Exp solvation set (Vermeire and Green 2021).

For `CCCCCOC(=O)CCC`, the “solvation free energy, 298 K” value (in O) is -2.55 kcal/mol.
Take `C#CCCCC`: the “solvation free energy, 298 K” value is, setting by setting: (in C1CCC2CCCCC2C1) -3.68 kcal/mol; (in C1CCC(C2CCCCC2)CC1) -3.65 kcal/mol; (in CN1CCCC1=O) -4.11 kcal/mol; (in CN(C)C=O) -3.94 kcal/mol; (in CS(C)=O) -3.55 kcal/mol; (in N#CCCCCC#N) -3.32 kcal/mol. In addition, the “solvation free energy, 298 K” value was -2.4 kcal/mol (in NCCO); 0.29 kcal/mol (in O); -3.57 kcal/mol (in O=Cc1ccco1); -3.31 kcal/mol (in OCc1ccco1); -3.99 kcal/mol (in c1ccc2c(c1)CCCC2); -3.88 kcal/mol (in c1ccc(C2CCCCC2)cc1).
For the compound `FC1(F)C(F)(F)C(F)(F)C1(F)F`, the “solvation free energy, 298 K” value (in O) turned out to be 3.43 kcal/mol.
The same measure, in the same setting: the figure for `Clc1ccc(Cl)c(-c2ccccc2)c1` is -2.46 kcal/mol.
On the same count and under the same terms, under `COc1ccc(C=O)cc1O` stands -9.04 kcal/mol.
For `C(=Cc1ccccc1)c1ccccc1`, the “solvation free energy, 298 K” value by setting is: (in C1CCOC1) -11.8 kcal/mol; (in C1COCCO1) -11.5 kcal/mol; (in CC(C)(C)O) -9.66 kcal/mol; (in CC(C)CC(C)(C)C) -9.92 kcal/mol; (in CC(C)CC(C)O) -9.81 kcal/mol; (in CC(C)CCCC(C)CCO) -10 kcal/mol. Further, the “solvation free energy, 298 K” value runs as follows: (in CC(C)CCO) -9.88 kcal/mol; (in CC(C)CO) -9.73 kcal/mol; (in CC(C)O) -9.74 kcal/mol; (in CCC(C)(C)O) -9.84 kcal/mol; (in CCC(C)=O) -11.5 kcal/mol; (in CCC(C)O) -9.81 kcal/mol. Besides, the “solvation free energy, 298 K” value runs as follows: (in CCCC(C)CO) -9.92 kcal/mol; (in CCCC(C)O) -9.91 kcal/mol; (in CCCCC(CC)CO) -10 kcal/mol; (in CCCCCC) -10.2 kcal/mol; (in CCCCCCC) -10.2 kcal/mol; (in CCCCCCCC) -10.2 kcal/mol. For the same compound, the “solvation free energy, 298 K” value (in CCCCCCCCCC) is -10.2 kcal/mol; the “solvation free energy, 298 K” value (in CCCCCCCCCCO) is -10.2 kcal/mol; the “solvation free energy, 298 K” value (in CCCCCCCCO) was -10.2 kcal/mol; the “solvation free energy, 298 K” value (in CCCCCCCO) was -10.2 kcal/mol; the “solvation free energy, 298 K” value (in CCCCCCO) was -10.1 kcal/mol; the “solvation free energy, 298 K” value (in CCCCCO) was -10.1 kcal/mol. The “solvation free energy, 298 K” value is, setting by setting: (in CCCCO) -10 kcal/mol; (in CCCCOC(C)=O) -11.2 kcal/mol; (in CCCCOCCCC) -10.6 kcal/mol; (in CCCO) -9.97 kcal/mol; (in CCO) -9.99 kcal/mol; (in CCOC(C)=O) -11.2 kcal/mol. In addition, the “solvation free energy, 298 K” value was -11 kcal/mol (in CCOCC); -11.6 kcal/mol (in CN(C)C=O); -9.92 kcal/mol (in CO); -10.9 kcal/mol (in COC(C)(C)C); -11.2 kcal/mol (in COC(C)=O); -11.3 kcal/mol (in Cc1ccc(C)cc1). Also, the “solvation free energy, 298 K” value (in Cc1cccc(C)c1) was -11.2 kcal/mol; the “solvation free energy, 298 K” value (in Cc1ccccc1C) is -11.3 kcal/mol; the “solvation free energy, 298 K” value (in ClC(Cl)(Cl)Cl) is -11.2 kcal/mol; the “solvation free energy, 298 K” value (in Clc1ccccc1) was -11.5 kcal/mol; the “solvation free energy, 298 K” value (in O) is -3.79 kcal/mol.
Regarding `CC(=O)CCC(C)C`, the “solvation free energy, 298 K” value (in NC=O) was -4.52 kcal/mol.
Turning to `O=C(O)C(O)c1ccccc1` (stereo not drawn), the “solvation free energy, 298 K” value was -9.41 kcal/mol (in C=CCCCCCCC=C) and -13.7 kcal/mol (in O).
Take `Clc1cc(Cl)cc(-c2cc(Cl)ccc2Cl)c1`: where the note is “in O”, the “solvation free energy, 298 K” value is -2.73 kcal/mol.
The same measure, in the same setting: the figure for `CCc1ccc(C)cc1` is -0.95 kcal/mol; for `C=C1C2CCC(C2)C1(C)CCC=C(C)C` (stereo not drawn) it is 0.35 kcal/mol.
The same measure, in the same setting: under `CC(C)CCCCOC(=O)c1ccccc1C(=O)OCCCCC(C)C` stands -6.55 kcal/mol; under `CCCCCCBr`, 0.18 kcal/mol; under `Cc1ccc(CO)cc1`, -7.12 kcal/mol.
Take `Clc1ccc(-c2ccc(Cl)cc2)cc1`: the “solvation free energy, 298 K” value runs as follows: under setting [1], -10.9 kcal/mol; (in CCCCCCCCO) -10.7 kcal/mol; (in O) -2.91 kcal/mol.
Turning to `Clc1cc(Cl)cc(Cl)c1`, the “solvation free energy, 298 K” value reads like this: (in CCCCCC) -6.96 kcal/mol; (in CCCCCCCCO) -6.62 kcal/mol; (in O) -0.78 kcal/mol.
Consider `Oc1ccccc1Br`, for which the “solvation free energy, 298 K” value runs as follows: (in CC(C)CC(C)(C)C) -6.25 kcal/mol; (in CCCCCC) -6.52 kcal/mol; (in CCCCCCC) -6.49 kcal/mol; (in CCCCCCCC) -6.47 kcal/mol; (in CCCCCCCCCC) -6.44 kcal/mol; (in Cc1ccc(C)cc1) -7.18 kcal/mol. The “solvation free energy, 298 K” value is -7.27 kcal/mol (in Cc1cccc(C)c1), -7.22 kcal/mol (in Cc1ccccc1C) and -5.06 kcal/mol (in O).
For `CCCCCCCCOC(=O)c1ccccc1C(=O)OCCCC`, the “solvation free energy, 298 K” value (in O) is -6.83 kcal/mol.
As for `CCC(O)(CC)CC`, the “solvation free energy, 298 K” value runs as follows: (in CCCCCCCC) -5.42 kcal/mol; (in CCCCCCCCCC) -5.34 kcal/mol.
As for `CCCCC(=O)OCCC(C)CCC=C(C)C` (stereo not drawn), the “solvation free energy, 298 K” value (in O) was -2.51 kcal/mol.
As to `CCCCCCCCCCO`, the “solvation free energy, 298 K” value reads like this: (in CC(C)O) -9.77 kcal/mol; (in CCCCCC) -7.69 kcal/mol; (in CCCCCCCC) -7.87 kcal/mol; (in CCCCCCCCCO) -9.64 kcal/mol; (in CCCO) -9.73 kcal/mol; (in O) -3.69 kcal/mol.
Turning to `c1ccc(Cn2ccnc2)cc1`, the “solvation free energy, 298 K” value (in O) is -7.63 kcal/mol.
In the case of `c1nc[nH]n1`, the “solvation free energy, 298 K” value reads like this: (in COC(C)=O) -10.3 kcal/mol; (in O) -11.6 kcal/mol.
For `CC1CCCCC1O` (stereo not drawn), the “solvation free energy, 298 K” value (in O) was -4.79 kcal/mol.
As for `O=C(O)c1ccccc1`, the “solvation free energy, 298 K” value runs as follows: (in C1CCOC1) -9.93 kcal/mol; (in C1COCCO1) -9.81 kcal/mol; (in C=CCCCCCCC=C) -6.26 kcal/mol; (in C=CCCCCCCCCCCCCCC) -5.84 kcal/mol; (in CC(=O)N(C)C) -10.1 kcal/mol; (in CC(C)=O) -9.63 kcal/mol. The “solvation free energy, 298 K” value (in CC(C)CCO) was -9.41 kcal/mol; the “solvation free energy, 298 K” value (in CC(C)CO) was -9.4 kcal/mol; the “solvation free energy, 298 K” value (in CC(C)O) was -9.63 kcal/mol; the “solvation free energy, 298 K” value (in CCC(C)O) was -9.41 kcal/mol; the “solvation free energy, 298 K” value (in CCCC(C)O) was -9.52 kcal/mol; the “solvation free energy, 298 K” value (in CCCCCCCCCCO) was -9.21 kcal/mol. The “solvation free energy, 298 K” value (in CCCCCCCO) is -9.27 kcal/mol; the “solvation free energy, 298 K” value (in CCCCCCO) is -9.39 kcal/mol; the “solvation free energy, 298 K” value (in CCCCCO) is -9.44 kcal/mol; the “solvation free energy, 298 K” value (in CCCCO) was -9.58 kcal/mol; the “solvation free energy, 298 K” value (in CCCCOC(C)=O) was -9.29 kcal/mol; the “solvation free energy, 298 K” value (in CCCCOCCCC) was -8.8 kcal/mol. Also, the “solvation free energy, 298 K” value was -9.6 kcal/mol (in CCCO); -9.71 kcal/mol (in CCO); -9.43 kcal/mol (in CCOC(C)=O); -9.45 kcal/mol (in CCOCC); -10.1 kcal/mol (in CN(C)C=O); -10 kcal/mol (in CNC=O). Besides, the “solvation free energy, 298 K” value was -9.81 kcal/mol (in CO) and -6.96 kcal/mol (in O).
For the compound `COc1c(Cl)ccc(Cl)c1C(=O)O`, where the note is “in O”, the “solvation free energy, 298 K” value was -9.86 kcal/mol.
With `C1=CCCC=C1`, the “solvation free energy, 298 K” value was -4.14 kcal/mol (in C1CCC2CCCCC2C1); -4.06 kcal/mol (in C1CCC(C2CCCCC2)CC1); -3.77 kcal/mol (in CN1CCCC1=O); -0.26 kcal/mol (in O); -4.31 kcal/mol (in c1ccc2c(c1)CCCC2); -4.19 kcal/mol (in c1ccc(C2CCCCC2)cc1).
With `CCc1cnccn1`, for the setting “in O”, the “solvation free energy, 298 K” value was -5.45 kcal/mol.
For the compound `CCCCCCCCCCCCCCCCO`, the “solvation free energy, 298 K” value reads like this: (in CC(C)O) -13.7 kcal/mol; (in CCC(C)=O) -13.8 kcal/mol; under setting [1], -11.6 kcal/mol; (in CCCCCCCCCCO) -13.4 kcal/mol; (in CCCCCCCCO) -13.5 kcal/mol; (in CCCCCCO) -13.6 kcal/mol. The “solvation free energy, 298 K” value is -13.1 kcal/mol (in CCCCOCCCC), -13.5 kcal/mol (in CCOCC) and -2.76 kcal/mol (in O).
